From article PMC4775997, “Imidazopyridazine Inhibitors of Plasmodium falciparum Calcium-Dependent Protein Kinase 1 Also Target Cyclic GMP-Dependent Protein Kinase and Heat Shock Protein 90 To Kill the Parasite at Different Stages of Intracellular Development” (Antimicrobial Agents and Chemotherapy, 2016)
Like-named read-outs stand apart in the source and are kept apart here.

Columns and labels:
3D7 PKG T618Q = assay: microbe, parasite or virus in culture; type: cell-based, Plasmodium falciparum; details: for 3D7 PKG T618Q/3D7 EC50 ratio / EC50: Table 2; for EC50: SYBR green I, 96 h, single experiment, or mean (SD) of duplicate assays, read-out: Parasite inhibition EC50, 3D7 PKG T618Q; for Ratio 3D7 PKG T618Q/3D7: Table S2
CDPK1 = CDPK1 (Plasmodium falciparum, UniProt P62344); assay: biochemical; type: biochemical; details: read-out: Enzyme inhibition IC50, CDPK1
P. falciparum 3D7 [1] = assay: SYBR green I growth assay, wild-type parasites; type: cell-based, Plasmodium falciparum; details: for EC5048/EC5096 ratio: Table 1
PfHSP90-NTD = PfHSP90-NTD (Plasmodium falciparum, UniProt Q8IC05); assay: Tryptophan fluorescence binding, PfHSP90 N-terminal domain; details: tryptophan fluorescence 346 nm; [SE] of triplicate measurements; read-out: Kd, PfHSP90-NTD
Text: PfCDPK1 and PfCDPK1 T145G proteins were produced using methods described elsewhere ([23]). The PfHSP90 N-terminal domain (NTD) comprises the first 223 amino acids of PfHSP90. This region was amplified from the full-length PfHSP90-pRSET-A construct ([32]) using the following primers: primer 7, […]; primer 8, […].
The PCR product was cloned into pRSET-A (Life Technologies) between the BamHI and XhoI sites. Positive clones were confirmed by restriction digestion and sequencing. The clone was transformed into Escherichia coli Rosetta(pLysS) cells, and protein was expressed by induction with 0.1 mM isopropyl β-D-1-thiogalactopyranoside (IPTG) at 37°C for 2 h. […]
Tryptophan fluorescence analysis was performed using a PerkinElmer LS55 luminescence spectrometer. […] Samples were excited at 280 nm, and tryptophan fluorescence measurements were carried out by scanning the emission spectrum in the wavelength range 300 to 400 nm. […] The difference in fluorescence intensity between protein alone and protein with various concentrations of 17-AAG or compound D was calculated and plotted against the different concentrations of the respective ligand used. The resultant hyperbolic curve was analyzed with GraphPad Prism software, using nonlinear regression analysis with single-site-specific binding as described previously ([32]).

PfHSP90 = PfHSP90 (Plasmodium falciparum, UniProt Q8IC05); assay: Tryptophan fluorescence binding, full-length PfHSP90; details: tryptophan fluorescence 346 nm; [SE] of triplicate measurements; read-out: Kd, full-length PfHSP90
Method: The PCR product was cloned into pRSET-A (Life Technologies) between the BamHI and XhoI sites. Positive clones were confirmed by restriction digestion and sequencing. The clone was transformed into Escherichia coli Rosetta(pLysS) cells, and protein was expressed by induction with 0.1 mM isopropyl β-D-1-thiogalactopyranoside (IPTG) at 37°C for 2 h. PfHSP90 proteins were purified using Ni-nitrilotriacetic acid (NTA) affinity chromatography (Qiagen) as described in the manufacturer's protocol.
Tryptophan fluorescence analysis was performed using a PerkinElmer LS55 luminescence spectrometer. […] The binding buffer used for the reaction contained 50 mM Tris-HCl, pH 7.4, and 1 mM EDTA. Samples were excited at 280 nm, and tryptophan fluorescence measurements were carried out by scanning the emission spectrum in the wavelength range 300 to 400 nm. A maximum wavelength (λmax) of 346 nm was selected for all the calculations. The slit widths of excitation and emission were set at 2.5 and 5 nm, respectively. The difference in fluorescence intensity between protein alone and protein with various concentrations of 17-AAG or compound D was calculated and plotted against the different concentrations of the respective ligand used. The resultant hyperbolic curve was analyzed with GraphPad Prism software, using nonlinear regression analysis with single-site-specific binding as described previously ([32]).

P. falciparum 3D7 [2] = assay: Microscopic examination of Giemsa-stained smears (stage of action); details: for Stage of action (before or after DNA synthesis): Table S1, ring-stage parasites, 10x EC50 for 48 h; for Stage of action: ring stage parasites treated with 10 times the 96-h EC50 for 48 h
PfPKG = molecular target: T1, PfPKG (Plasmodium falciparum, UniProt Q8I719); assay: Microfluidic fluorescent shift assay of cGMP-dependent protein kinase activity; type: biochemical; details: read-out: Enzyme inhibition IC50, PKG
T1 construct: plasmids (pTrcHisC) encoding full-length PfPKG and PfPKG T618Q with N-terminal His tags; His tag (N); made in house; host or cells: E. coli Rosetta2(DE3)

PfPKG T618Q = molecular target: T2, PfPKG T618Q (Plasmodium falciparum, UniProt Q8I719, T618Q); assay: biochemical; type: biochemical; details: for IC50: read-out: Enzyme inhibition IC50, PKG T618Q
T2 construct: plasmids (pTrcHisC) encoding full-length PfPKG and PfPKG T618Q with N-terminal His tags; His tag (N); made in house; host or cells: E. coli Rosetta2(DE3)

3D7 CDPK1 T145G-HA = assay: SYBR green assay, 3D7 CDPK1 T145G-HA line; type: cell-based; details: Plasmodium falciparum, 3D7, read-out: EC50, 3D7 CDPK1 T145G-HA
Method: (§1) Aliquots of 100 μl of P. falciparum cultures 24 h after erythrocyte invasion were transferred into 96-well culture dishes. Cells were incubated with inhibitors for 48 or 96 h (starting parasitemias were 0.3% and 0.03%, respectively). All drug treatments were carried out in duplicate at a final dimethyl sulfoxide (DMSO) concentration of 0.05%. After incubation, a modification of a previously described SYBR green assay was performed ([27]). Cells were lysed by the addition of 25 μl of buffer (20 mM Tris-HCl, pH 8.0, 2 mM EDTA, pH 8.0, 1.6% Triton X-100, 0.16% saponin, 10× SYBR green I [Life Technologies]). After incubation in the dark for 2 h, fluorescence of the samples was determined using a FLUOStar Omega plate reader (BMG Labtech) with excitation and emission filters of 485 nm and 520 nm, respectively. EC50s were calculated from a four-parameter logistical fit of the data using Prism software (GraphPad Software, Inc.).
(§2) Parasites expressing CDPK1 T145G and CDPK1 T145T were generated as described previously ([28]). Briefly, a region of homology to facilitate integration of the plasmid via single-crossover homologous recombination was amplified from P. falciparum 3D7 genomic DNA at 194 bp upstream of the ATG to bp 435 of the open reading frame using primers 1 and 2 for the wild-type (WT) version and primers 1 and 3 for the glycine version. […]

3D7 CDPK1 T145T-HA = assay: SYBR green assay, 3D7 CDPK1 T145T-HA line; type: cell-based; details: Plasmodium falciparum, 3D7, read-out: EC50, 3D7 CDPK1 T145T-HA
Method: as §1, §2

[3] = Table 2, SYBR green I, 96 h, single experiment, or mean (SD) of duplicate assays, read-out: Parasite inhibition EC50, 3D7
[4] = SYBR green I, 48 h incubation, mean of three independent experiments (SD), read-out: EC50 after treatment for 48 h
[5] = SYBR green I, 96 h incubation, mean of three independent experiments (SD), read-out: EC50 after treatment for 96 h
[6] = Table S1, single experiment with duplicate samples, or mean of triplicate experiments (SD), read-out: EC50 48 hours

T2 sequence (Q8I719 whole entry T618Q): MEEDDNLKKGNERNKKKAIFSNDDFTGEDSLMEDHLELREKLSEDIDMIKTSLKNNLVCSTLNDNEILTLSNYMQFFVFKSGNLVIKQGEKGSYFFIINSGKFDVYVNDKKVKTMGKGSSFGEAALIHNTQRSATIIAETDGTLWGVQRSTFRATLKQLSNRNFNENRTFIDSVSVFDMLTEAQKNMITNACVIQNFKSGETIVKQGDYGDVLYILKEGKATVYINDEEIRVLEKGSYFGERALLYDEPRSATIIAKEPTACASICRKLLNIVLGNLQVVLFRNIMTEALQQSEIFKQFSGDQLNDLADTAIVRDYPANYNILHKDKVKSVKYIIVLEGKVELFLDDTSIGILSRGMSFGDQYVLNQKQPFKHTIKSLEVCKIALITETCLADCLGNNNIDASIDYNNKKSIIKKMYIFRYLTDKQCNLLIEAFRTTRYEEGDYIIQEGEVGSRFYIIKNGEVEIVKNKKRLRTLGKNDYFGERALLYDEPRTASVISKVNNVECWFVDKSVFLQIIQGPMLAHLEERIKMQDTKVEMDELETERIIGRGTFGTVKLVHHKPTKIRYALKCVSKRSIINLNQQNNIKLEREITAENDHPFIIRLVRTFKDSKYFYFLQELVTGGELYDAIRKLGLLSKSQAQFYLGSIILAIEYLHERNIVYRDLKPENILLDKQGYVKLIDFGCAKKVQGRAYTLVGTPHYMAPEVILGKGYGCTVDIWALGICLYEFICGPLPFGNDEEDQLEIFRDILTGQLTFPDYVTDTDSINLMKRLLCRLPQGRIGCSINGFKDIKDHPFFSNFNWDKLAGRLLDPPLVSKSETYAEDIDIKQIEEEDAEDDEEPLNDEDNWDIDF
CDPK1, sequence (P62344 whole entry): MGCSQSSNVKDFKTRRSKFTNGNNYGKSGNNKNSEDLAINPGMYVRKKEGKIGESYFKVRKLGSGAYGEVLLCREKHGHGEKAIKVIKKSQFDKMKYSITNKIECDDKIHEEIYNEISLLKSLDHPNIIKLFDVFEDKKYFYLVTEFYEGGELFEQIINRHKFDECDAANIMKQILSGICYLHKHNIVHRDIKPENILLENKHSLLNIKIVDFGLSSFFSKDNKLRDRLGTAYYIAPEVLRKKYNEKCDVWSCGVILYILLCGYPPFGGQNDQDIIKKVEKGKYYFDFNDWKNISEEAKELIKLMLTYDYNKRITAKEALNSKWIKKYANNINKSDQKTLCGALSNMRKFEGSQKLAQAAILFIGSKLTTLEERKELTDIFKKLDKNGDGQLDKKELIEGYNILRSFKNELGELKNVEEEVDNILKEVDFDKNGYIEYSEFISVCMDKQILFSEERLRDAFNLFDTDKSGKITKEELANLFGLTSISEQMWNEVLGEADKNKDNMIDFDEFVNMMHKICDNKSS
PfHSP90, sequence (Q8IC05 entry or part of it): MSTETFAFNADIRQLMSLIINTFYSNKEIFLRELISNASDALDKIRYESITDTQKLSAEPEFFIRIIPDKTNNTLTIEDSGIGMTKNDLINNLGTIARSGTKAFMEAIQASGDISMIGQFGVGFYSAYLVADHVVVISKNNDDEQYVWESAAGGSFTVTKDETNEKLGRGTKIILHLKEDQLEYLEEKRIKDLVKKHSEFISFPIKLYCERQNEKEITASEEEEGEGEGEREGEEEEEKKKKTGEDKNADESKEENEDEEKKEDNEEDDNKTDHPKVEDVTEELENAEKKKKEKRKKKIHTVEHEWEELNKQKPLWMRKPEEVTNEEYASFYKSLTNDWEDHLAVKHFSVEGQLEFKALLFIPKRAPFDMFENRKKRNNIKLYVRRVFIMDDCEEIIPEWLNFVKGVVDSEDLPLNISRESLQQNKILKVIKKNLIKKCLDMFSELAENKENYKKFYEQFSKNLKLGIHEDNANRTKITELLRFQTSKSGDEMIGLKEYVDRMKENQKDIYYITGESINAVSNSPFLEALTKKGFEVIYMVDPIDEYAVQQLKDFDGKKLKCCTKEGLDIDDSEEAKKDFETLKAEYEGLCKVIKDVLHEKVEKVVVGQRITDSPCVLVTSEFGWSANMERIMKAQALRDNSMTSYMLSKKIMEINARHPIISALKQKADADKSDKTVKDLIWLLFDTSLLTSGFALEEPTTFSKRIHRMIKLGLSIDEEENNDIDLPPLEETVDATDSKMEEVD
PfHSP90-NTD, sequence (Q8IC05 entry or part of it): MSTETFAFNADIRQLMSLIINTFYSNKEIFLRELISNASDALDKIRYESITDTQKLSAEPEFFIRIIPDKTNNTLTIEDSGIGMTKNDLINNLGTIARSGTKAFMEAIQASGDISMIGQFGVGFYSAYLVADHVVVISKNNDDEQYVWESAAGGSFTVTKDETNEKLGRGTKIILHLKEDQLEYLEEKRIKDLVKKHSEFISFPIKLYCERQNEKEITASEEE

Row | Structure (SMILES) | 3D7 PKG T618Q/3D7 EC50 ratio (3D7 PKG T618Q) | EC50 (3D7 PKG T618Q) [nM] | Ratio 3D7 PKG T618Q/3D7 (3D7 PKG T618Q) | IC50 (CDPK1; Table 2) [nM] | EC50 (P. falciparum 3D7 [1]; [3]) [µM] | Stage of action (before or after DNA synthesis) (P. falciparum 3D7 [2]) | Stage of action (P. falciparum 3D7 [2]) | EC50 (P. falciparum 3D7 [1]; [4]) [µM] | EC50 (P. falciparum 3D7 [1]; [5]) [µM] | EC5048/EC5096 ratio (P. falciparum 3D7 [1]) | IC50 (PfPKG) [nM] | IC50 (PfPKG T618Q; Table 2, ATP at Km 90 μM) [µM] | Selectivity PKG T618Q/PKG (PfPKG T618Q; Table S2) | ratio EC5048:EC5096 (P. falciparum 3D7 [1]; Table S1) | EC50 (P. falciparum 3D7 [1]; [6]) [µM] | further results
1 | CNc1ccc2ncc(-c3ccc(NCCC(C)C)nc3)n2n1 [Compound 42] | 1.5 | 1230 | 1 | 81 | 0.836 |  |  |  |  |  |  |  |  |  |  | 
2 | C=CCNC1=C2C[C@@H](C)C[C@H](OC)[C@H](O)[C@@H](C)/C=C(\C)[C@H](OC(N)=O)[C@@H](OC)/C=C\C=C(/C)C(=O)NC(=CC1=O)C2=O [Compound 17-AAG, 17-N-allylamino-17-demethoxygeldanamycin, reference compound] |  |  |  |  |  |  |  |  |  |  |  |  |  |  |  | Kd (PfHSP90-NTD): 15.8 µM; Kd (PfHSP90): 8.7 µM
3 | CN1CCC(CNc2ccc3ncc(-c4cnc(Nc5ncccc5F)nc4)n3n2)CC1 [Compound 38] | 11.8 | 859 | 12 | 8 | 0.073 | late schizont | Late schizont | > 1000 | 0.05 | >1,000 | 4 | 43.5 | 12187 |  |  | 
4 | CC(C)CCNc1ccc(-c2cnc3ccc(NC4CCN(C)C4)nn23)cn1 (centres unmarked) [Compound 22] | 1.4 | 303 | 1 | 74 | 0.215 | trophozoite (before) | Trophozoite | 0.546 | 0.3 | 1.8 | > 1000 | 37.5 |  | 1.8 | 0.55 | Selectivity (PKG T618Q/PKG IC50 ratio) (PfPKG T618Q; Table 2): <38
5 | CC(C)(C)n1nc(Cc2cccc3ccccc23)c2c(N)ncnc21 [NM-PP1, 1-(1,1-dimethylethyl)-3-(1-naphthalenylmethyl)-1H-pyrazolo[3,4-d]pyrimidin-4-amine] |  |  |  |  |  |  |  |  |  |  |  |  |  |  |  | EC50 (3D7 CDPK1 T145G-HA): 10.3 µM; EC50 (3D7 CDPK1 T145T-HA): 11.6 µM
6 | Fc1cccnc1Nc1ccc(-c2cnc3ccc(NC4CCNCC4)nn23)cc1 [Compound 13] |  |  |  |  |  |  |  |  |  |  |  |  | 23 | 1.7 | 1.25 | IC50 (CDPK1; Table S2): 14 nM; EC50 (P. falciparum 3D7 [1]; Table S1, single experiment with duplicate samples, or mean of triplicate experiments (SD), read-out: EC50 96 hours): 0.76 µM; IC50 (PfPKG; Table S2): 162 nM; IC50 (PfPKG T618Q; Table S2): 3.68 µM
